This is an account of results in patent US20240239799A1, “(S)-1-(5-((PYRIDIN-3-YL)THIO)PYRAZIN-2-YL)-4'H,6'H-SPIRO[PIPERIDINE-4,5'-PYRROLO [1,2-B]PYRAZOL]-4'-AMINE DERIVATIVES AND SIMILAR COMPOUNDS AS SHP2 INHIBITORS FOR THE TREATMENT OF E.G. CANCER” (C.N.C.C.S. S.C.A.R.L. COLLEZIONE NAZIONALE DEI COMPOSTI …, priority 2021, published 2024).

For test [1], the target named is T1, SHP2 (Avi-G4SG4S-PTPN11(1-525)) (Homo sapiens, UniProt Q06124).
T1 construct: (Avi-G4SG4S-PTPN11(1-525)); purchased Viva Biotech Ltd
T1 sequence (Q06124 1-525): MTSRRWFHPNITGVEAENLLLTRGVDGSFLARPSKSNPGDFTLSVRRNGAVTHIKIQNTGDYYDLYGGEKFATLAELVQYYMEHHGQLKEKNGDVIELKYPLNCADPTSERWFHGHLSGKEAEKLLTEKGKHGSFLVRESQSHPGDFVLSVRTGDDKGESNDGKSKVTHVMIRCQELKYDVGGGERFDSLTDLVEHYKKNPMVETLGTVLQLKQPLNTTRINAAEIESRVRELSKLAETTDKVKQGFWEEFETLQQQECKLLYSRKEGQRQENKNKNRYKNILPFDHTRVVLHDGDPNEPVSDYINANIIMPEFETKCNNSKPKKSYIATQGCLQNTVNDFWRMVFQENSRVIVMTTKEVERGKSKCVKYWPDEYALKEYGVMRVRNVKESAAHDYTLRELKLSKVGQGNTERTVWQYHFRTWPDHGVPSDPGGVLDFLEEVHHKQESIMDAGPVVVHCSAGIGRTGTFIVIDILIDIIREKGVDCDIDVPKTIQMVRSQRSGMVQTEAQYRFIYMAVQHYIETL
The test can be described thus: Binding kinetic assay by surface plasmon resonance (SPR). As to conditions: Biacore T200, single cycle kinetic, 1:1 Langmuir binding model; for koff: triplicate. The protocol: A binding assay for measuring SHP2 inhibitors binding kinetic was developed using a Biacore T200 Instrument (Cytiva, Sweden). […] Data analysis was performed by Biacore T200 Evaluation software (Cytiva), and kinetic parameters were evaluated by a global fitting according to a 1:1 Langmuir binding model. Each molecule was tested in triplicate on separate flow channels.
Background: Surface plasmon resonance follows binding to a sensor surface in real time, without labels.

Test [2] deals with phospho-ERK1/2 (Thr202/Tyr204) in KYSE-520 cells. The test can be described thus: Phospho-ERK cellular assay (TR-FRET). The test is classed as cell-based. The conditions noted are these: Homo sapiens, KYSE-520, 2 h, read-out: pERK IC50. An outline of the steps:
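KYSE-520 cells plated overnight, then exposed to compound for 2 h at 37° C and lysed. Phospho-ERK1/2 (Thr202/Tyr204) detected by TR-FRET with Eu-cryptate and D2 antibodies after overnight incubation at rt. IC50 from four-parameter fit, normalised to DMSO (0%) and no-cell (100%) controls.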
On the technique in general: Time-resolved FRET reads energy transfer from a long-lived donor to a nearby acceptor.

Test [3] addresses T2, SHP-2 enzyme (Met1-Leu525) (Homo sapiens, UniProt Q06124).
T2 construct: synthetized by Origene, Met1-Leu525, cat #TP750155; purchased Origene TP750155
T2 sequence (Q06124 1-525): T1 sequence (Q06124 1-525)
The test can be described thus: SHP2 inhibition enzymatic assay (DiFMUP substrate, IRS1 peptide activation). Type of test: biochemical. The conditions noted are these: 0.5 nM SHP-2, 500 nM IRS1 peptide, 75 μM DiFMUP; read-out: SHP2wt - IC50.

Structures are written as SMILES. Like-named read-outs stand apart in the source and are kept apart here.

As usually defined, the koff is the first-order rate constant of dissociation. Low values mean slow dissociation, high ones fast dissociation. In general, IC50 refers to the concentration that inhibits the measured activity by half. On to `Nc1nc(N2CCC3(CC2)Cn2ncc(Cl)c2[C@H]3N)cnc1Sc1ccnc(N)c1Cl` [Example 5, (S)-1-(6-amino-5-((2-amino-3-chloropyridin-4-yl)thio)pyrazin-2-yl)-3′-chloro-4′H,6′H-spiro[piperidine-4,5′-pyrrolo[1,2-b]pyrazol]-4′-amine], for which, in test [1], the “Residence time 1/koff SPR” value is listed as 17007 s and the koff came out at 5.88e-05 s⁻¹. Also, in test [2] (KYSE-520 cells, 2 h at 37° C.), the concentration for half-maximal inhibition (IC50) is below 0.1 µM. The IC50 in test [3] was at most 0.05 µM.

For `Nc1nccc(Sc2cnc(N3CCC4(CC3)Cn3nccc3[C@H]4N)cn2)c1Cl` [Example 6, (S)-1-(5-((2-amino-3-chloropyridin-4-yl)thio)pyrazin-2-yl)-4′H,6′H-spiro[piperidine-4,5′-pyrrolo[1,2-b]pyrazol]-4′-amine], in test [1], the “Residence time 1/koff SPR” value turned out to be 2740 s and the koff came out at 0.000365 s⁻¹. For the same compound, the IC50 in test [2] (KYSE-520 cells, 2 h at 37° C.) is below 0.1 µM. The IC50 in test [3] is at most 0.05 µM.

Take `Nc1nccc(Sc2cnc(N3CCC4(CC3)Cn3ncc(Cl)c3[C@H]4N)cn2)c1Cl` [Example 7, (S)-1-(5-((2-amino-3-chloropyridin-4-yl)thio)pyrazin-2-yl)-3′-chloro-4′H,6′H-spiro[piperidine-4,5′-pyrrolo[1,2-b]pyrazol]-4′-amine]: in test [1], the “Residence time 1/koff SPR” value is 3185 s and the koff was determined as 0.000314 s⁻¹. Also, the IC50 in test [2] (KYSE-520 cells, 2 h at 37° C.) was below 0.1 µM. The IC50 in test [3] was at most 0.05 µM.

In the case of `Nc1nccc(Sc2cnc(N3CCC4(CC3)Cn3ncc(Br)c3[C@H]4N)cn2)c1Cl` [Example 8, (S)-1-(5-((2-amino-3-chloropyridin-4-yl)thio)pyrazin-2-yl)-3′-bromo-4′H,6′H-spiro[piperidine-4,5′-pyrrolo[1,2-b]pyrazol]-4′-amine], the “Residence time 1/koff SPR” value in test [1] was determined as 8621 s. Also, the off-rate constant (koff) in test [1] turned out to be 0.000116 s⁻¹. For the same compound, the IC50 in test [2] (KYSE-520 cells, 2 h at 37° C.) is below 0.1 µM; in test [3], at most 0.05 µM.

As for `Nc1nccc(Sc2cnc(N3CCC4(CC3)Cn3ncc(F)c3[C@H]4N)cn2)c1Cl` [Example 9, (S)-1-(5-((2-amino-3-chloropyridin-4-yl)thio)pyrazin-2-yl)-3′-fluoro-4′H,6′H-spiro[piperidine-4,5′-pyrrolo[1,2-b]pyrazol]-4′-amine], in test [1], the “Residence time 1/koff SPR” value turned out to be 9615 s and the dissociation rate constant (koff) is 0.000104 s⁻¹. In addition, the IC50 in test [2] (KYSE-520 cells, 2 h at 37° C.) was below 0.1 µM. The IC50 in test [3] is at most 0.05 µM.

As to `Cc1cc2n(n1)CC1(CCN(c3cnc(Sc4ccnc(N)c4Cl)cn3)CC1)[C@@H]2N` [Example 11, (S)-1-(5-((2-amino-3-chloropyridin-4-yl)thio)pyrazin-2-yl)-2′-methyl-4′H,6′H-spiro[piperidine-4,5′-pyrrolo[1,2-b]pyrazol]-4′-amine], in test [1], the “Residence time 1/koff SPR” value is reported as 29412 s and the koff came to 3.4e-05 s⁻¹. Further, the IC50 in test [2] (KYSE-520 cells, 2 h at 37° C.) was below 0.1 µM. In test [3], the IC50 is at most 0.05 µM.

On to `N[C@@H]1c2ccnn2CC12CCN(c1cnc3nc(Sc4ccnc(-n5cccn5)c4Cl)ccc3n1)CC2` [Example 72, (S)-1-(6-((3-chloro-2-(1H-pyrazol-1-yl)pyridin-4-yl)thio)pyrido[2,3-b]pyrazin-2-yl)-4′H,6′H-spiro[piperidine-4,5′-pyrrolo[1,2-b]pyrazol]-4′-amine], for which the IC50 in test [2] (KYSE-520 cells, 2 h at 37° C.) was 0.1 to 0.5 µM; in test [3] it was at most 0.05 µM.

For the compound `Nc1nccc(Sc2ccc3nc(N4CCC5(CC4)Cn4nccc4[C@H]5N)cnc3n2)c1Cl` [Example 73, (S)-1-(6-((2-amino-3-chloropyridin-4-yl)thio)pyrido[2,3-b]pyrazin-2-yl)-4′H,6′H-spiro[piperidine-4,5′-pyrrolo[1,2-b]pyrazol]-4′-amine], the IC50 in test [2] (KYSE-520 cells, 2 h at 37° C.) was below 0.1 µM; in test [3], at most 0.05 µM.

Take `Cn1c(N2CCC3(CC2)Cn2nccc2[C@H]3N)nc2nc(Sc3ccnc(N)c3Cl)cnc21` [Example 74, (S)-1-(5-((2-amino-3-chloropyridin-4-yl)thio)-1-methyl-1H-imidazo[4,5-b]pyrazin-2-yl)-4′H,6′H-spiro[piperidine-4,5′-pyrrolo[1,2-b]pyrazol]-4′-amine]: the IC50 in test [2] (KYSE-520 cells, 2 h at 37° C.) is above 0.5 µM; in test [3] it was 0.05 to 0.3 µM.

For `N[C@@H]1c2ccnn2CC12CCN(c1cnc(Sc3ccnc(-n4cccn4)c3Cl)c3cncn13)CC2` [Example 75, (S)-1-(8-((3-chloro-2-(1H-pyrazol-1-yl)pyridin-4-yl)thio)imidazo[1,5-a]pyrazin-5-yl)-4′H,6′H-spiro[piperidine-4,5′-pyrrolo[1,2-b]pyrazol]-4′-amine], the IC50 is 0.1 to 0.5 µM in test [2] (KYSE-520 cells, 2 h at 37° C.) and at most 0.05 µM in test [3].

On to `Cn1c(N2CCC3(CC2)Cn2nccc2[C@H]3N)ncc(Sc2ccnc(N)c2Cl)c1=O` [Example 76, (S)-5-((2-amino-3-chloropyridin-4-yl)thio)-2-(4′-amino-4′H,6′H-spiro[piperidine-4,5′-pyrrolo[1,2-b]pyrazol]-1-yl)-3-methylpyrimidin-4(3H)-one], for which the IC50 in test [2] (KYSE-520 cells, 2 h at 37° C.) is below 0.1 µM; in test [3] it was at most 0.05 µM.

Regarding `Cc1nc(N2CCC3(CC2)Cn2nccc2[C@H]3N)cc(=O)n1-c1cccc(Cl)c1Cl` [Example 77, (S)-6-(4′-amino-4′H,6′H-spiro[piperidine-4,5′-pyrrolo[1,2-b]pyrazol]-1-yl)-3-(2,3-dichlorophenyl)-2-methylpyrimidin-4(3H)-one], the IC50 was 0.1 to 0.5 µM in test [2] (KYSE-520 cells, 2 h at 37° C.) and at most 0.05 µM in test [3].

`Cc1nc(N2CCC3(CC2)Cn2nccc2[C@H]3N)c(Cl)c(=O)n1-c1cccc(Cl)c1Cl` [Example 78, (S)-6-(4′-amino-4′H,6′H-spiro[piperidine-4,5′-pyrrolo[1,2-b]pyrazol]-1-yl)-5-chloro-3-(2,3-dichlorophenyl)-2-methylpyrimidin-4(3H)-one]: the IC50 in test [2] (KYSE-520 cells, 2 h at 37° C.) was 0.1 to 0.5 µM; in test [3], at most 0.05 µM.

With `N[C@@H]1c2ccnn2CC12CCN(c1cnc(Sc3ccnc4c(F)cccc34)cn1)CC2` [Example 79, (S)-1-(5-((8-fluoroquinolin-4-yl)thio)pyrazin-2-yl)-4′H,6′H-spiro[piperidine-4,5′-pyrrolo[1,2-b]pyrazol]-4′-amine], the IC50 in test [2] (KYSE-520 cells, 2 h at 37° C.) was below 0.1 µM; in test [3] it was at most 0.05 µM.

With `N[C@@H]1c2ccnn2CC12CCN(c1cnc(Sc3ccncc3Cl)cn1)CC2` [Example 80, (S)-1-(5-((3-chloropyridin-4-yl)thio)pyrazin-2-yl)-4′H,6′H-spiro[piperidine-4,5′-pyrrolo[1,2-b]pyrazol]-4′-amine], the IC50 in test [2] (KYSE-520 cells, 2 h at 37° C.) is below 0.1 µM; in test [3], at most 0.05 µM.

With `Cc1nccc(Sc2cnc(N3CCC4(CC3)Cn3nccc3[C@H]4N)cn2)c1F` [Example 81, (S)-1-(5-((3-fluoro-2-methylpyridin-4-yl)thio)pyrazin-2-yl)-4′H,6′H-spiro[piperidine-4,5′-pyrrolo[1,2-b]pyrazol]-4′-amine], the IC50 in test [2] (KYSE-520 cells, 2 h at 37° C.) is below 0.1 µM; in test [3], at most 0.05 µM.

In the case of `N[C@@H]1c2cccn2CC12CCN(c1cnc(Sc3ccnc(-n4cccn4)c3Cl)cn1)CC2` [Example 82, (S)-1-(5-((3-chloro-2-(1H-pyrazol-1-yl)pyridin-4-yl)thio)pyrazin-2-yl)-1′H,3′H-spiro[piperidine-4,2′-pyrrolizin]-1′-amine], the IC50 was below 0.1 µM in test [2] (KYSE-520 cells, 2 h at 37° C.) and at most 0.05 µM in test [3].

`N[C@@H]1c2ccnn2CC12CCN(c1cnc(Sc3cccc(Cl)c3Cl)cn1)CC2` [Example 83, (S)-1-(5-((2,3-dichlorophenyl)thio)pyrazin-2-yl)-4′H,6′H-spiro[piperidine-4,5′-pyrrolo[1,2-b]pyrazol]-4′-amine]: the IC50 was below 0.1 µM in test [2] (KYSE-520 cells, 2 h at 37° C.) and at most 0.05 µM in test [3].

Consider `N[C@@H]1c2ccnn2CC12CCN(c1ccc(Sc3cccc(Cl)c3Cl)nc1)CC2` [Example 84, (S)-1-(6-((2,3-dichlorophenyl)thio)pyridin-3-yl)-4′H,6′H-spiro[piperidine-4,5′-pyrrolo[1,2-b]pyrazol]-4′-amine], for which the IC50 in test [2] (KYSE-520 cells, 2 h at 37° C.) is below 0.1 µM; in test [3] it was at most 0.05 µM.

Take `N[C@@H]1c2ccnn2CC12CCN(c1nccn3c(-c4cccc(Cl)c4Cl)ncc13)CC2` [Example 85, (S)-1-(3-(2,3-dichlorophenyl)imidazo[1,5-a]pyrazin-8-yl)-4′H,6′H-spiro[piperidine-4,5′-pyrrolo[1,2-b]pyrazol]-4′-amine]: the IC50 in test [2] (KYSE-520 cells, 2 h at 37° C.) is below 0.1 µM; in test [3], at most 0.05 µM.

As to `Cc1nc(N2CCC3(CC2)Cn2cccc2[C@H]3N)cc(=O)n1-c1cccc(Cl)c1Cl` [Example 86, (S)-6-(1′-amino-1′H,3′H-spiro[piperidine-4,2′-pyrrolizin]-1-yl)-3-(2,3-dichlorophenyl)-2-methylpyrimidin-4(3H)-one], the IC50 is 0.1 to 0.5 µM in test [2] and at most 0.05 µM in test [3].
